In ChEMBL document CHEMBL1127631, “Three-dimensional structure-activity analysis of a series of porphyrin derivatives with anti-HIV-1 activity targeted to the V3 loop of the gp120 envelope glycoprotein of the human immunodeficiency virus type 1” (J Med Chem, 1994):

Tested on: Human immunodeficiency virus 1
Test: Inhibition of HIV-1 P24 production.
Assay type: functional, organism-based
[1] = read-out: Log 1/EC50 (converted)

Compound	EC50 (Human immunodeficiency virus 1) [µM]	EC50 [1] [µM]	EC50 [µM]
O=C(O)c1ccc(/C2=C3\C=CC(=N3)/C(c3ccccc3)=c3/cc/c([nH]3)=C(\c3ccc(C(=O)O)cc3)C3C=CC(N3)/C(c3ccc(C(=O)O)cc3)=C3/C=CC2=N3)cc1 (stereo unspecified)	0.612		
Cc1ccc(/C2=C3\C=CC(=N3)/C(c3ccc(C(=O)O)cc3)=c3/cc/c([nH]3)=C(\c3ccc(C)cc3)C3C=CC(N3)/C(c3ccc(C)cc3)=C3/C=CC2=N3)cc1 (stereo unspecified)	14.7	14.8	
O=C(O)c1ccc(/C2=C3\C=CC(=N3)/C(c3ccc(C(=O)O)cc3)=c3/cc/c([nH]3)=C(\c3ccc(C(=O)O)cc3)C3C=CC(N3)/C(c3ccc(C(=O)O)cc3)=C3/C=CC2=N3)cc1 (stereo unspecified)	0.63		
C=Cc1c(C)c2cc3[nH]c(cc4nc(cc5nc(cc1[nH]2)C(C)=C5CCC(=O)OC)C(CCC(=O)OC)=C4C)c(C)c3C=C	67.9	67.6	
C1=C/C2=C(\c3ccccc3)C3C=CC(N3)/C(c3ccccc3)=c3/cc/c([nH]3)=C(\c3ccccc3)C3=N/C(=C(/c4ccccc4)C1=N2)C=C3 (stereo unspecified)	54.7	55	
HEMIN			35.3
O=C(O)c1ccc(/C2=C3\C=CC(=N3)/C(c3ccc(Cl)cc3)=C3/C=CC(=N3)/C(c3ccc(C(=O)O)cc3)=c3/cc/c([nH]3)=C(\c3ccc(C(=O)O)cc3)C3C=CC2N3)cc1 (stereo unspecified)	0.758	1.32	
C=CC1=C(C)c2cc3[nH]c(cc4nc(cc5[nH]c(cc1n2)c(C)c5CCC(=O)O)C(CCC(=O)O)=C4C)c(C)c3C=C [PROTOPORPHYRIN]	2.17	2.19	
CC1=C(C(O)CO)c2cc3nc(cc4[nH]c(cc5[nH]c(cc1n2)c(C)c5CCC(=O)O)c(CCC(=O)O)c4C)C(C(O)CO)=C3C (stereo unspecified)	54.4	55	
O=C(O)C1=CC(=C(c2ccc(O)c(C(=O)O)c2)c2ccc(O)c(C(=O)O)c2)C=CC1=O [AURINTRICARBOXYLIC ACID]	28.4		
CN1C2C=CC1/C(c1ccc(C(=O)O)cc1)=c1/cc/c([nH]1)=C(\c1ccc(C(=O)O)cc1)C1=N/C(=C(/c3ccc(C(=O)O)cc3)C3=N/C(=C\2c2ccc(C(=O)O)cc2)C=C3)C=C1 (stereo unspecified)	0.774	1.29	

Second part, the compound after the results:

EC50 (Human immunodeficiency virus 1) [µM]	EC50 [1] [µM]	EC50 [µM]	Compound
6.16	6.17		C=Cc1c(C)c2cc3[nH]c(cc4nc(cc5nc(cc1[nH]2)C(C)=C5CCC(=O)O)C(CCC(=O)O)=C4C)c(C)c3C(C)O (stereo unspecified)
1.03	1.02		C=CC1=C(C)c2cc3nc(cc4[nH]c(cc5c(C=C)c(C)c(cc1n2)n5C)c(C)c4CCC(=O)O)C(CCC(=O)O)=C3C
1.07	1.07		NC(=O)c1ccc(/C2=C3\C=CC(=N3)/C(c3ccc(C(N)=O)cc3)=c3/cc/c([nH]3)=C(\c3ccc(C(N)=O)cc3)C3C=CC(N3)/C(c3ccc(C(N)=O)cc3)=C3/C=CC2=N3)cc1 (stereo unspecified)
5.59	5.62		C=CC1=C(C)c2cc3nc(cc4[nH]c(cc5[nH]c(cc1n2)c(C)c5CO)c(C)c4CCC(=O)O)C(CCC(=O)O)=C3C
10.7	10.7		CC1=C(CCC(=O)O)c2cc3[nH]c(cc4[nH]c(cc5nc(cc1n2)C(CCC(=O)O)=C5CC(=O)O)c(CCC(=O)O)c4CC(=O)O)c(CCC(=O)O)c3CC(=O)O
43.3	43.7		CC1=C(CCC(=O)O)c2cc3nc(cc4[nH]c(cc5[nH]c(cc1n2)c(CCC(=O)O)c5CC(=O)O)c(CCC(=O)O)c4C)C(CCC(=O)O)=C3C
9.04	9.12		O=C(O)CCC1=C(CC(=O)O)c2cc3nc(cc4[nH]c(cc5[nH]c(cc1n2)c(CC(=O)O)c5CCC(=O)O)c(CC(=O)O)c4CCC(=O)O)C(CC(=O)O)=C3CCC(=O)O
20.7	20.9		CC1=C(CCC(=O)O)c2cc3[nH]c(cc4[nH]c(cc5nc(cc1n2)C(CCC(=O)O)=C5CC(=O)O)c(CCC(=O)O)c4C)c(CCC(=O)O)c3CC(=O)O
3.02	3.02		O=C(O)CCC1=C(CC(=O)O)c2cc3nc(cc4[nH]c(cc5[nH]c(cc1n2)c(CCC(=O)O)c5CC(=O)O)c(CC(=O)O)c4CCC(=O)O)C(CC(=O)O)=C3CCC(=O)O
